{"source": "patent US20200147117A1", "about": "“COMBINATION CANCER THERAPY” (BIOSIGHT LTD., priority 2017, published 2020)", "key": {"[1]": {"tested_on": "U937 human hematological cancer cells", "assay": "Proliferation and survival of U937 cells, PI staining / FACS, 72 hours", "format": "cell-based", "protocol": "U937 human hematological cancer cells were cultured in RPMI supplemented with 10% FCS. […] Azacitidine (AZA) was added to the cell cultures at 5 different concentrations: 0, 100, 250, 1000, 5000 nM. […] All groups were analyzed in triplicates. […] The percentage of inhibition was calculated."}, "U937 cells": {"tested_on": "U937 cells", "assay": "Activity of BST-236 on U937 cells, 48 hr, 10% FCS (Table 3)", "format": "cell-based, human"}, "[2]": {"tested_on": "Molt-4 human leukemia cell line", "assay": "Molt-4 cell proliferation, MTT assay, 72 hr", "format": "cell-based", "protocol": "Molt-4 human leukemia cell line was obtained from ATCC. The cells were grown in RPMI medium containing 10% FBS and 1% glutamine Cells were seeded in 96-well plates, 50,000 cells/ml, 0.2 ml per well. Test substances were diluted in PBS and added in final concentrations of 0.1 nM to 10 μM, in a volume of 20 μl. The study was conducted in triplicates. PBS was used as a control. Plates were incubated for 72 hr at 37° C. with 5% CO2. At the end of the treatment period, a MTT assay using the MTT reagent [3-(4,5-dimethylthiazol-2-yl)-2,5-diphenyltetrazolium bromide] was performed. MTT was added to each well at a concentration of 5 mg/ml in a volume of 0.02 ml. Plates were incubated at 37° C. for 3 hours. The plates were centrifuged at 3500 rpm for 5 minutes and the supernatant was aspirated. The pellets which contained MTT crystals were each dissolved in 0.2 ml DMSO. Absorbance was determined using ELISA reader at a wavelength of 570 nm."}, "Molt-4 cells": {"tested_on": "Molt-4 cells", "assay": "Activity of Asp-Cytarabine/BST-236 on Molt-4 cells, 48 hr, 10% FCS (Table 5)", "format": "cell-based, human"}, "U937 leukemia cells": {"tested_on": "U937 leukemia cells", "assay": "Animal model of leukemia: NSG mice injected IV with U937 cells", "format": "in vivo, NOD scid gamma (NSG) mice", "conditions": "for Spleen size / weight compared to the control mice: s.c. daily, FIG. 4", "protocol": "The effect of BST-236 in combination with azacytidine on the survival of U937 leukemia cells in vivo was next examined NOD scid gamma (NSG) mice were irradiated with 200 rad, 24 hours before injection with U937 cells. On Day 0, mice (4-5 animals per group), were injected intravenously (IV) with 7×10^6 U937 cells in a total volume of 200 μL PBS. On Days 16-22 (7 days, first study) or 13-18 (6 days, second study), mice were daily injected subcutaneously (s.c.) with BST-236 (5 mg/mouse; ˜250 mg/kg), azacytidine (designated AZA; 6 mg/kg), or BST-236 (5 mg/mouse; ˜250 mg/kg) and AZA (6 mg/kg). Twenty-four hours after the last injection, mice were sacrificed, and spleen, blood, and bone marrow were analyzed for mouse and human CD45^+ cells using fluorescence-activated cell sorting (FACS).\nGiven that finding, experiments will be performed using even lower doses of BST-236 to evaluate synergistic activity with, e.g., AZA. It is, for example, expected that 20 mg/kg BST-236 will be efficacious. Accordingly, in a particular embodiment, NSG mice will be dosed with 20 mg/kg BST-236 alone, 6 mg/kg AZA alone, or a combination of 20 mg/kg BST-236 and 6 mg/kg AZA to investigate synergistic activity with this dosing regimen. It is understood that synergistic activity may also be observed at lower doses of AZA in combination with 20 mg/kg BST-236."}, "[3]": {"assay": "PK analysis from Phase I/II studies after infusion", "format": "in vivo", "text": "Accordingly, synergistic interactions may be observed within […] administration of BST-236."}, "[4]": {"conditions": "BST-236 5 mg/mouse, AZA 6 mg/kg"}}, "note": "Like-named read-outs stand apart in the source and are kept apart here."}
{"smiles": "NC(CC(=O)Nc1ccn([C@@H]2O[C@H](CO)C(O)C2O)c(=O)n1)C(=O)O", "note": "(stereo partly shown) [Asp-Cytarabine]", "values": [{"measurement": "% inhibition (growth inhibition of U937 cells)", "setting": "[1]; BST236 250 nM alone", "value": 19.1, "unit": "%"}, {"measurement": "Activity on U937 cells (count)", "setting": "U937 cells; 1 nM, 48 hr, 10% FCS", "value": 16958}, {"measurement": "Activity on U937 cells (count)", "setting": "U937 cells; 10 nM, 48 hr, 10% FCS", "value": 16994}, {"measurement": "Activity on U937 cells (count)", "setting": "U937 cells; 50 nM, 48 hr, 10% FCS", "value": 15769.67}, {"measurement": "Activity on U937 cells (count)", "setting": "U937 cells; 100 nM, 48 hr, 10% FCS", "value": 15228.33333}, {"measurement": "Activity on U937 cells (count)", "setting": "U937 cells; 250 nM, 48 hr, 10% FCS", "value": 14819.67}, {"measurement": "Activity on U937 cells (count)", "setting": "U937 cells; 1000 nM, 48 hr, 10% FCS", "value": 6185.667}, {"measurement": "Activity on U937 cells (count)", "setting": "U937 cells; 5000 nM, 48 hr, 10% FCS", "value": 2116}, {"measurement": "inhibition at 0.001 µM", "setting": "U937 cells; Homo sapiens, U-937, 1 nM, 48 hr, 10% FCS, read-out: Activity on U937 cells (inhibition relative to 0)", "value": -2.27, "unit": "%"}, {"measurement": "inhibition at 0.01 µM", "setting": "U937 cells; Homo sapiens, U-937, 10 nM, 48 hr, 10% FCS, read-out: Activity on U937 cells (inhibition relative to 0)", "value": -2.49, "unit": "%"}, {"measurement": "inhibition at 0.05 µM", "setting": "U937 cells; Homo sapiens, U-937, 50 nM, 48 hr, 10% FCS, read-out: Activity on U937 cells (inhibition relative to 0)", "value": 4.9, "unit": "%"}, {"measurement": "inhibition at 0.1 µM", "setting": "U937 cells; Homo sapiens, U-937, 100 nM, 48 hr, 10% FCS, read-out: Activity on U937 cells (inhibition relative to 0)", "value": 8.16, "unit": "%"}, {"measurement": "inhibition at 0.25 µM", "setting": "U937 cells; Homo sapiens, U-937, 250 nM Asp-Cytarabine administered alone, read-out: inhibition of U937 cells", "value": "< 20", "unit": "%"}, {"measurement": "inhibition at 0.25 µM", "setting": "U937 cells; Homo sapiens, U-937, 250 nM, 48 hr, 10% FCS, read-out: Activity on U937 cells (inhibition relative to 0)", "value": 10.6, "unit": "%"}, {"measurement": "inhibition at 1 µM", "setting": "U937 cells; Homo sapiens, U-937, 1000 nM, 48 hr, 10% FCS, read-out: Activity on U937 cells (inhibition relative to 0)", "value": 62.7, "unit": "%"}, {"measurement": "inhibition at 5 µM", "setting": "U937 cells; Homo sapiens, U-937, 5000 nM, 48 hr, 10% FCS, read-out: Activity on U937 cells (inhibition relative to 0)", "value": 87.2, "unit": "%"}, {"measurement": "IC50", "setting": "[2]", "value": 47, "unit": "nM"}, {"measurement": "Activity on Molt-4 cells (count)", "setting": "Molt-4 cells; 1 nM, 48 hr, 10% FCS", "value": 18778.00}, {"measurement": "Activity on Molt-4 cells (count)", "setting": "Molt-4 cells; 10 nM, 48 hr, 10% FCS", "value": 17759.00}, {"measurement": "Activity on Molt-4 cells (count)", "setting": "Molt-4 cells; 50 nM, 48 hr, 10% FCS", "value": 14258.67}, {"measurement": "Activity on Molt-4 cells (count)", "setting": "Molt-4 cells; 100 nM, 48 hr, 10% FCS", "value": 12006.67}, {"measurement": "Activity on Molt-4 cells (count)", "setting": "Molt-4 cells; 250 nM, 48 hr, 10% FCS", "value": 9572.00}, {"measurement": "Activity on Molt-4 cells (count)", "setting": "Molt-4 cells; 1000 nM, 48 hr, 10% FCS", "value": 3156.33}, {"measurement": "Activity on Molt-4 cells (count)", "setting": "Molt-4 cells; 5000 nM, 48 hr, 10% FCS", "value": 2037.33}, {"measurement": "inhibition at 0.001 µM", "setting": "Molt-4 cells; Homo sapiens, MOLT-4, 1 nM, 48 hr, 10% FCS, read-out: Activity on Molt-4 cells (inhibition relative to 0)", "value": 1.88, "unit": "%"}, {"measurement": "inhibition at 0.01 µM", "setting": "Molt-4 cells; Homo sapiens, MOLT-4, 10 nM Asp-Cytarabine, read-out: inhibition of Molt-4 cells", "value": "< 10", "unit": "%"}, {"measurement": "inhibition at 0.01 µM", "setting": "Molt-4 cells; Homo sapiens, MOLT-4, 10 nM, 48 hr, 10% FCS, read-out: Activity on Molt-4 cells (inhibition relative to 0)", "value": 7.21, "unit": "%"}, {"measurement": "inhibition at 0.05 µM", "setting": "Molt-4 cells; Homo sapiens, MOLT-4, 50 nM, 48 hr, 10% FCS, read-out: Activity on Molt-4 cells (inhibition relative to 0)", "value": 25.5, "unit": "%"}, {"measurement": "inhibition at 0.1 µM", "setting": "Molt-4 cells; Homo sapiens, MOLT-4, 100 nM, 48 hr, 10% FCS, read-out: Activity on Molt-4 cells (inhibition relative to 0)", "value": 37.3, "unit": "%"}, {"measurement": "inhibition at 0.25 µM", "setting": "Molt-4 cells; Homo sapiens, MOLT-4, 250 nM, 48 hr, 10% FCS, read-out: Activity on Molt-4 cells (inhibition relative to 0)", "value": 50, "unit": "%"}, {"measurement": "inhibition at 1 µM", "setting": "Molt-4 cells; Homo sapiens, MOLT-4, 1000 nM, 48 hr, 10% FCS, read-out: Activity on Molt-4 cells (inhibition relative to 0)", "value": 83.5, "unit": "%"}, {"measurement": "inhibition at 5 µM", "setting": "Molt-4 cells; Homo sapiens, MOLT-4, 5000 nM, 48 hr, 10% FCS, read-out: Activity on Molt-4 cells (inhibition relative to 0)", "value": 89.3, "unit": "%"}, {"measurement": "Spleen size / weight compared to the control mice", "setting": "U937 leukemia cells; [4]", "value": "reduced spleen size"}, {"measurement": "Animals that survived until the scheduled sacrifice", "setting": "U937 leukemia cells; first study, s.c. daily Days 16-22, sacrifice on Day 23, BST-236 5 mg/mouse, AZA 6 mg/kg", "value": "4/4"}, {"measurement": "Concentration decline following infusion cessation", "setting": "[3]; Phase I/II studies", "value": "rapidly declined in an apparent biphasic manner"}, {"measurement": "Concentration relative to the peak", "setting": "[3]; at 6-10 hours from the completion of the infusion", "value": "≤ 5 % of the peak"}]}
{"smiles": "Nc1ncn([C@@H]2O[C@H](CO)[C@@H](O)[C@H]2O)c(=O)n1", "note": "[Azacitidine]", "values": [{"measurement": "% inhibition (growth inhibition of U937 cells)", "setting": "[1]; AZA 100 nM alone", "value": 1.68, "unit": "%"}, {"measurement": "% inhibition (growth inhibition of U937 cells)", "setting": "[1]; AZA 250 nM alone", "value": "−3.60", "unit": "%"}, {"measurement": "% inhibition (growth inhibition of U937 cells)", "setting": "[1]; AZA 1000 nM alone", "value": 0.60, "unit": "%"}, {"measurement": "% inhibition (growth inhibition of U937 cells)", "setting": "[1]; AZA 5000 nM alone", "value": 4.30, "unit": "%"}, {"measurement": "IC50", "setting": "[2]", "value": 2110, "unit": "nM"}, {"measurement": "Spleen size / weight compared to the control mice", "setting": "U937 leukemia cells; [4]", "value": "reduced spleen size"}, {"measurement": "Animals that died before the scheduled sacrifice", "setting": "U937 leukemia cells; first study, AZA 6 mg/kg s.c. daily Days 16-22, sacrifice on Day 23", "value": "1/4"}]}
